Test results reported in paper PMC9204775 (ACS Chemical Neuroscience, 2022).

Legend:
[1] = target: T1, human (α4)2(β2)3 nAChR (Homo sapiens, UniProt P17787+P43681); assay: Two-electrode voltage-clamp recording, (α4)2(β2)3 nAChRs expressed in Xenopus oocytes (α4:β2 cRNA 1:10); assay type: cell-based; conditions: for stoichiometry selectivity of antagonism, (α4)2(β2)3 versus (α4)3(β2)2 nAChRs: 100 μM antibiotic coapplied with EC50 concentration of ACh, compared with (α4)3(β2)2; for remaining activity at 100 µM: read-out: (α4)2(β2)3 nAChR (% control response to ACh)
T1 construct: expressed in transfected cells; host or cells: Xenopus laevis oocytes (cRNA injection)
Protocol: (§2) To achieve heterologous expression of human α4β2 nAChRs in two distinct subunit stoichiometries [(α4)2(β2)3 and (α4)3(β2)2], a well-established protocol was employed in which Xenopus laevis oocytes were injected with α4 and β2 cRNA in ratios of 1:10 and 10:1, respectively.[19],[20] […] Oocytes were injected, using a Drummond variable volume microinjector, with 32.2 nL of cRNA containing either a mixture of 30 ng/μL human α4 and 300 ng/μL human β2 or 300 ng/μL human α4 and 30 ng/μL human β2 cRNAs.
(§3) Xenopus were anesthetized by immersion in 0.2% MS222 for 15 min (or until complete anesthesia was confirmed by absence of leg-withdrawal and righting reflex), followed by cranial concussion, decapitation, and pithing. Xenopus oocytes were isolated, maintained, and injected with cRNA, as described previously.[21] […] Application of compounds was controlled by LabChart software (AD Instruments) using a BPS-8 solenoid valve solution exchange system (ALA Scientific Inc.). Typically, agonists were applied for 5 s or until a plateau in the response was observed. Antagonists were preapplied for 30 s and then coapplied with agonist for 5 s or until a plateau in the response was observed.
(§4) For individual pairwise comparisons, statistical significance was determined using unpaired Student’s t tests or ANOVA for multiple comparisons. Dose–response curves were fitted by GraphPad Prism, using the following equation (where I is the current, Imax is the maximum current, the EC50 is the concentration of agonist that elicits a half-maximal response, and nH is the Hill coefficient): [drawing 1]

[2] = target: human (α4)3(β2)2 nAChR (Homo sapiens, UniProt P17787+P43681); assay: Two-electrode voltage-clamp recording, (α4)3(β2)2 nAChRs expressed in Xenopus oocytes (α4:β2 cRNA 10:1); conditions: for remaining activity at 100 µM: read-out: (α4)3(β2)2 nAChR (% control response ACh)
Protocol: as §2, §3, §4

[3] = system: human α7 nAChRs; conditions: previous studies; cited from earlier work
[4] = target: T2, human α4β2 nAChR (Homo sapiens, UniProt P17787+P43681); assay: Two-electrode voltage-clamp recording, heterologously expressed α4β2 nAChRs (stoichiometry not distinguished); assay type: cell-based; conditions: wild-type, no ACh
T2 construct: expressed in transfected cells; host or cells: Xenopus laevis oocytes (cRNA injection)
Protocol: as §2
Xenopus oocytes were isolated, maintained, and injected with cRNA, as described previously.[21] Two-electrode voltage-clamp recordings were performed using a Warner Instruments OC-725C amplifier (Harvard Apparatus) with the oocyte membrane potential held at −60 mV, as described previously.[22] Oocytes were continuously perfused with a modified Ringer’s solution (115 mM NaCl, 2.5 mM KCl, 1.8 mM BaCl2, and 10 mM HEPES, pH 7.3). Application of compounds was controlled by LabChart software (AD Instruments) using a BPS-8 solenoid valve solution exchange system (ALA Scientific Inc.). Typically, agonists were applied for 5 s or until a plateau in the response was observed. Antagonists were preapplied for 30 s and then coapplied with agonist for 5 s or until a plateau in the response was observed.

[5] = target: α4β2 nAChRs containing mutated α4^L283A (Homo sapiens, UniProt P17787+P43681, L283A); conditions: no ACh
Excerpt: (§1) Human nAChR subunit cDNAs in plasmid expression vector pSP64GL (pSP64GL-α4 and pSP64GL-β2) have been described previously.[18] […] Note that the numbering of these amino acids in the human nAChR α4 and β2 subunits is based on the intact protein sequence (including the signal sequence), as indicated in the EMBL/GenBank database entries NP_000735.1 and NP_000739.1, respectively.

[6] = target: α4β2 nAChRs containing mutated α4^S284A (Homo sapiens, UniProt P17787+P43681, S284A); conditions: no ACh
Excerpt: as §1

[7] = target: α4β2 nAChRs containing the β2^V278A subunit (Homo sapiens, UniProt P17787+P43681, V278A); conditions: no ACh
Excerpt: as §1

[8] = 100 μM antibiotic coapplied with a range of ACh concentrations

human (α4)3(β2)2 nAChR, sequence (P43681 27-627): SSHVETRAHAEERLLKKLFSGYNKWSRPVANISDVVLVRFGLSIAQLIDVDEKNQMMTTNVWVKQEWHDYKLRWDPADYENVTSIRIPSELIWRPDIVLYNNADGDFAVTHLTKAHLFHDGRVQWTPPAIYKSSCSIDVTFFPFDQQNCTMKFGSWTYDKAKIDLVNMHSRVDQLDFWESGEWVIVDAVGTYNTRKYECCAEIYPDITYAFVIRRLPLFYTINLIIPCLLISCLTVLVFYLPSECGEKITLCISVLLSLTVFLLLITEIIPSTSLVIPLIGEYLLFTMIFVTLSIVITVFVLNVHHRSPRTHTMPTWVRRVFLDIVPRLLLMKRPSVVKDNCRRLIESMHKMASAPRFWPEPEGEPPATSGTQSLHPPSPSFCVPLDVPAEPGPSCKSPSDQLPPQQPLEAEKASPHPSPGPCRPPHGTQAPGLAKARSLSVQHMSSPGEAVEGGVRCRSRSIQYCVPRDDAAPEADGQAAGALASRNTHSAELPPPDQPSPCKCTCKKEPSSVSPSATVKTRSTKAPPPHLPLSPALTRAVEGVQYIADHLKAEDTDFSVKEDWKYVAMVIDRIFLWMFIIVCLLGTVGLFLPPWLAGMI
human (α4)3(β2)2 nAChR, sequence (P17787 26-502): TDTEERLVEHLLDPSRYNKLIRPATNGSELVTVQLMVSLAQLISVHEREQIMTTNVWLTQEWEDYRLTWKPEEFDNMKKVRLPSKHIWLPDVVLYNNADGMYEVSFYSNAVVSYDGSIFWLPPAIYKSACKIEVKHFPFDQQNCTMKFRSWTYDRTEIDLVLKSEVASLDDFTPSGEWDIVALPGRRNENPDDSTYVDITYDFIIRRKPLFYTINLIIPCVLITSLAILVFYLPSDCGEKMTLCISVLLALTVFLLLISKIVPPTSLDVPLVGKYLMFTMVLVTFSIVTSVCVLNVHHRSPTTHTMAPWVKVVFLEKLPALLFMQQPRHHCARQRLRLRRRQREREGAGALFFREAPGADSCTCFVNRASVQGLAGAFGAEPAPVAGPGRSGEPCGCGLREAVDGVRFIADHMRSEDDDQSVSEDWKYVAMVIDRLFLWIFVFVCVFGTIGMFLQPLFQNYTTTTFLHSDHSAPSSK
T1 sequence (P43681 27-627): as the sequence (P43681 27-627) above
T1 sequence (P17787 26-502): as the sequence (P17787 26-502) above
α4β2 nAChRs containing mutated α4^S284A, sequence (P43681 27-627 S284A): as the sequence (P43681 27-627) above, with S258A counted along it
α4β2 nAChRs containing mutated α4^S284A, sequence (P17787 26-502, stated change not applied): as the sequence (P17787 26-502) above
α4β2 nAChRs containing mutated α4^L283A, sequence (P43681 27-627 L283A): as the sequence (P43681 27-627) above, with L257A counted along it
α4β2 nAChRs containing mutated α4^L283A, sequence (P17787 26-502): as the sequence (P17787 26-502) above
α4β2 nAChRs containing the β2^V278A subunit, sequence (P43681 27-627): as the sequence (P43681 27-627) above
α4β2 nAChRs containing the β2^V278A subunit, sequence (P17787 26-502 V278A): as the sequence (P17787 26-502) above, with V253A counted along it
T2 sequence (P43681 27-627): as the sequence (P43681 27-627) above
T2 sequence (P17787 26-502): as the sequence (P17787 26-502) above

remaining activity at 100 µM [1] [%]	remaining activity at 100 µM [2] [%]	SMILES	stoichiometry selectivity of antagonism, (α4)2(β2)3 versus (α4)3(β2)2 nAChRs [1]	other results
39.9 ± 3.02	57.2 ± 0.97	CN1CCN(c2cc3c(cc2F)c(=O)c(C(=O)O)cn3-c2ccc(F)cc2)CC1 [difloxacin]	significantly greater antagonism on (α4)2(β2)3 nAChRs than on (α4)3(β2)2 nAChRs	
		CC(=O)OCC[N+](C)(C)C [ACh, acetylcholine]		Hill coefficient of ACh dose-response curve ([2]; absence of antibiotic): 0.74 ± 0.
		CCn1cc(C(=O)O)c(=O)c2cc(F)c(N3CCN(C)CC3)cc21 [pefloxacin]		mode of action on α7 nAChR [3]: noncompetitive antagonist
17.4 ± 1.12	58.4 ± 1.72	C[C@@H]1CN(c2c(F)c(N)c3c(=O)c(C(=O)O)cn(C4CC4)c3c2F)C[C@H](C)N1 [sparfloxacin]	significantly greater antagonism on (α4)2(β2)3 nAChRs than on (α4)3(β2)2 nAChRs	
23.5 ± 1.65	74.6 ± 1.88	CCn1cc(C(=O)O)c(=O)c2cc(F)c(N3CCNCC3)nc21 [enoxacin]	significantly greater antagonism on (α4)2(β2)3 nAChRs than on (α4)3(β2)2 nAChRs	
13.2 ± 0.46	64.8 ± 1.01	CCN1CCN(c2cc3c(cc2F)c(=O)c(C(=O)O)cn3C2CC2)CC1 [enrofloxacin]	significantly greater antagonism on (α4)2(β2)3 nAChRs than on (α4)3(β2)2 nAChRs	
58.2 ± 1.2	60.4 ± 0.61	CCn1nc(C(=O)O)c(=O)c2cc3c(cc21)OCO3 [cinoxacin]		Hill coefficient of ACh dose-response curve in the presence of the antibiotic ([1]; 100 μM antibiotic): 1.0 ± 0.1; maximal normalized ACh response in the presence of the antibiotic [1, 8]: 76.0 ± 1.5%; effect when applied alone [4]: no effect; effect when applied alone [5]: no effect; effect when applied alone [6]: no effect; effect when applied alone [7]: no effect; Hill coefficient of ACh dose-response curve in the presence of the antibiotic ([2]; 100 μM antibiotic): 0.62 ± 0.2; maximal normalized ACh response in the presence of the antibiotic [2, 8]: 80.0 ± 0.9%
13 ± 1	54.1 ± 3.4	CCn1cc(C(=O)O)c(=O)c2cc(F)c(N3CCNCC3)cc21 [norfloxacin]	significantly greater antagonism on (α4)2(β2)3 nAChRs than on (α4)3(β2)2 nAChRs	

SMILES	remaining activity at 100 µM [1] [%]	remaining activity at 100 µM [2] [%]	stoichiometry selectivity of antagonism, (α4)2(β2)3 versus (α4)3(β2)2 nAChRs [1]	other results
CCn1cc(C(=O)O)c(=O)c2cc3c(cc21)OCO3 [oxolinic acid]	59.5 ± 0.99	60.4 ± 0.72	no significant difference	
